Results on 68 molecules are retold here after patent publication US20110053897A1 (IRM LLC, priority 2009, published 2011).

pIC50: −log10 of the molar value.

The first assay deals with T1, Syk kinase (Homo sapiens, UniProt P43405).
T1 construct: purchased
In words: Syk kinase inhibition, Caliper LabChip off-chip mobility-shift kinase assay. Type of assay: biochemical. The conditions noted are these: Caliper LabChip assay; read-out: Syk Enzyme IC50. Put shortly:
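Purified Syk pre-incubated 15 min with compound in 100 mM HEPES pH 7.5, 1 mM DTT, 10 mM MgCl2 or MnCl2, 0.002% Brij-35, then 1.5 μM fluorescein peptide and ATP at apparent KM added; 1–1.5 h at room temperature, 4% DMSO, EDTA stop. Microfluidic mobility-shift product/substrate conversion gave % inhibition; IC50 from 12-point series (10–0.00003 μM) by 4-parameter fit.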
In general, pIC50 refers to −log10 of the IC50, conventionally taken in molar units. For the molecule `CC(C)(C)Nc1nc(Nc2cnccn2)c(Cl)c2ccn(CCO)c(=O)c12` [compound 837], the pIC50 was 5.97.
On to `CC(C)(C)Nc1nc(Nc2cc(C(C)(C)O)c(Cl)cn2)cc2ccn(CCO)c(=O)c12` [compound 728], for which the pIC50 was 6.55.
On the same count and under the same terms, as for `CC(C)(C)Nc1nc(-c2cnc(N)nc2)cc2ccn(CC(=O)N3CCOCC3)c(=O)c12` [compound 678], the figure is 7.11; as for `O=c1c2c(N[C@H]3CC[C@@H](O)CC3)nc(Nc3cnccn3)cc2ccn1Cc1ccncc1` [compound 1024], 6.76; as for `[2H]C([2H])([2H])n1ccc2cc(Nc3cc(C)ccn3)nc(N[C@H]3CC[C@@H](CO)C3)c2c1=O` [compound 985], 7.39.
On the same count and under the same terms, the figure for `CCn1ccc2cc(Nc3cc(C)ccn3)nc(NCCC(F)(F)F)c2c1=O` [compound 780] is 6.06; for `CC(C)(C)Nc1nc(Nc2cc(-n3cc(C(=O)O)cn3)ncn2)cc2ccn(CCO)c(=O)c12` [compound 888] it is 7.62; for `CCn1ccc2cc(Nc3cnccn3)nc(Nc3ccc(C(=O)N4CCC(O)CC4)cc3)c2c1=O` [compound 832] it is 5.95.
Turning to `CC(C)(CO)Nc1nc(-c2cnc(N)nc2)cc2ccn(CCO)c(=O)c12` [compound 902], the pIC50 was 7.24.
With `CC(C)(C)Nc1nc(Nc2cnccn2)cc2ccn(Cc3nn[nH]n3)c(=O)c12` [compound 884], the negative logarithm of the IC50 (pIC50) was 7.57.
As to `CC1(Nc2nc(Nc3cnccn3)cc3ccn(CCO)c(=O)c23)CC1` [compound 838], the pIC50 was 7.77.
On the same count and under the same terms, as for `CC1(Cn2ccc3cc(-c4cnc(N)nc4)nc(NC(C)(C)C)c3c2=O)COC1` [compound 924], the figure is 7.89; as for `CC(O)c1ccnc(Nc2cc3ccn(CCO)c(=O)c3c(NC(C)(C)C)n2)n1` (centres unmarked) [compound 715], 6.17.
The same measure, in the same setting: the figure for `CC1(Nc2nc(Nc3cc(C(O)C(F)(F)F)ccn3)cc3ccn(CC(N)=O)c(=O)c23)CC1` (centres unmarked) [compound 614] is 7.18; for `NC(=O)Cn1ccc2cc(Nc3cnccn3)nc(NC3CCCC3)c2c1=O` [compound 752] it is 7.74; for `CC(C)(C)Nc1nc(Nc2cc(C(O)C(F)(F)F)ccn2)cc2ccn(CCO)c(=O)c12` (centres unmarked) [Compound No. 602, 8-(tert-butylamino)-2-(2-hydroxyethyl)-6-(4-(2,2,2-trifluoro-1-hydroxyethyl)pyridin-2-ylamino)-2,7-naphthyridin-1(2H)-one] it is 7.19.
With `CC1(Cn2ccc3cc(-c4cnc(N)nc4)nc(NC4CCCC4)c3c2=O)COC1` [compound 760], the pIC50 was 6.89.
On the same count and under the same terms, as for `CC1(Nc2nc(Nc3cc(C(C)(C)O)ncn3)cc3ccn(CC(N)=O)c(=O)c23)CC1` [compound 620], the figure is 6.83; as for `CC(C)(C)CNc1nc(Nc2cnccn2)cc2ccn(CCO)c(=O)c12` [compound 898], 7.70.
Take `CC1(Nc2nc(Nc3cc(C(C)(C)O)ccn3)cc3ccn(CC(N)=O)c(=O)c23)CCC1` [compound 722]: the pIC50 is 6.81.
Still for that read-out and setting: as for `CC(C)n1ccc2cc(Nc3cnccn3)nc(N[C@H]3CC[C@@H](O)CC3)c2c1=O` [compound 944], the figure is 7.49; as for `CCn1ccc2cc(Nc3cnccn3)nc(NC(C)(C)CCO)c2c1=O` [compound 783], 6.75; as for `CC[C@@H](CO)Nc1nc(Nc2cc(C)ccn2)cc2ccn(CC)c(=O)c12` [compound 597], 7.09.
On the same count and under the same terms, as for `CC(C)(C)Nc1nc(-c2cnc(N)nc2)cc2ccn(CC(N)=O)c(=O)c12` [compound 663], the figure is 7.37.
Regarding `CC(C)(C)Nc1nc(Nc2cc(-c3ccc4cn[nH]c4c3)ccn2)cc2ccn(CCO)c(=O)c12` [compound 850], the negative logarithm of the IC50 (pIC50) was 6.25.
For `CC(C)(C)Nc1nc(Nc2cc(C3(C(=O)O)CC3)ccn2)cc2ccn(CCO)c(=O)c12` [compound 856], the pIC50 was 6.41.

Staying with this assay, now noted: read-out: Syk Enzyme IC50.
Consider `COc1cncc(-c2cc3cc[nH]c(=O)c3c(Nc3ccc(C4=CCNCC4)c(C)c3)n2)n1` [compound 13], for which the pIC50 was 7.42.
Still for that read-out and setting: as for `CCOC(C)c1cc2cc[nH]c(=O)c2c(Nc2ccc(N3CCO[C@H](C)C3)c(C)c2)n1` (some centres unmarked) [compound 233], the figure is 6.12.
The same measure, in the same setting: as for `CC(C)Nc1nc(Nc2ccc(Cl)cn2)cc2cc[nH]c(=O)c12` [compound 560], the figure is 6.21.
The same measure, in the same setting: as for `CN1CC(c2ccc(Nc3nc(-c4cncnc4)cc4cc[nH]c(=O)c34)cc2)C1` [compound 138], the figure is 7.59; as for `COc1cncc(-c2cc3cc[nH]c(=O)c3c(Nc3ccc(C4CCN(C5CCCC5)CC4)c(C)c3)n2)n1` [compound 62], 7.96; as for `CCN1CCN(CCc2ccc(Nc3nc(-c4cnn(CC(C)C)c4)cc4c(F)c[nH]c(=O)c34)cc2)CC1` [compound 445], 6.52.
Turning to `COc1cncc(-c2cc3cc[nH]c(=O)c3c(Nc3ccc(C4CCC(N(C)C)CC4)cc3)n2)n1` (centres unmarked) [compound 109], the pIC50 is 7.51.
With `CCc1ccnc(Nc2cc3cc[nH]c(=O)c3c(NC3CC3)n2)c1` [compound 521], the pIC50 is 6.88.
As to `[2H]C([2H])([2H])n1ccc2cc(Nc3cc(C)c(F)cn3)nc(NC3CC3)c2c1=O` [compound 547], the pIC50 is 6.38.
Same read-out and setting: the figure for `CCn1ccc2cc(Nc3cnccn3)nc(N[C@@H](C)CO)c2c1=O` [compound 353] is 7.46; for `CCC(C(=O)O)N1CCC(c2ccc(Nc3nc(-c4cncc(OC)n4)cc4cc[nH]c(=O)c34)cc2C)CC1` (centres unmarked) [compound 119] it is 8.30; for `COc1cncc(-c2cc3cc[nH]c(=O)c3c(Nc3ccc(CCCN4CCOCC4)cc3)n2)n1` [compound 40] it is 7.02.
With `CCN1CCN(CCc2ccc(Nc3nc(-c4cncc(OC)n4)cc4c(F)c[nH]c(=O)c34)cc2)CC1` [compound 440], the pIC50 was 6.46.
The same measure, in the same setting: the figure for `COc1ncc(-c2cc3c(F)c[nH]c(=O)c3c(Nc3ccc(N4CCOCC4)cc3)n2)cn1` [compound 430] is 6.92.
Take `COc1ccc(Nc2nc(Nc3cc(C)ccn3)cc3ccn(C)c(=O)c23)cc1` [compound 364]: the pIC50 is 6.64.
On the same count and under the same terms, the figure for `CC(=O)c1cc2cc[nH]c(=O)c2c(Nc2ccc(C3CCN(C4CC4)CC3)c(C)c2)n1` [compound 221] is 6.60.
Still for that read-out and setting: the figure for `Cc1cc(-c2cc3cc[nH]c(=O)c3c(Nc3ccc(C4CCN(CCC#N)CC4)c(C)c3)n2)nc(N)n1` [compound 70] is 6.46.
Still for that read-out and setting: the figure for `Cc1ccc(Nc2cc3cc[nH]c(=O)c3c(Nc3ccc(CCN4CCCN(C)CC4)cc3)n2)nc1` [compound 552] is 6.41.
Take `O=c1[nH]ccc2cc(Nc3ccc(Cl)cn3)nc(Nc3ccc(N4CCOCC4)cc3)c12` [compound 526]: the negative-log IC50 (pIC50) is 6.10.
The same measure, in the same setting: as for `Nc1ncc(-c2cc3cc[nH]c(=O)c3c(NCC(F)(F)F)n2)cn1` [compound 450], the figure is 6.93.
Still for that read-out and setting: the figure for `COc1cncc(-c2cc3cc[nH]c(=O)c3c(Nc3ccc(CCn4cncn4)cc3)n2)n1` [compound 24] is 6.91; for `CCN1CCN(Cc2n[nH]c3cc(Nc4nc(-c5cncc(C(=O)N6CCOCC6)c5)cc5cc[nH]c(=O)c45)ccc23)CC1` [compound 207] it is 7.05.
For the molecule `COc1cncc(-c2cc3cc[nH]c(=O)c3c(Nc3ccc(C4CCN(CC(O)CO)CC4)c(C)c3)n2)n1` (centres unmarked) [compound 166], the pIC50 was 8.52.
For `CC(C)CC(C)Nc1nc(Nc2ccccn2)cc2cc[nH]c(=O)c12` (centres unmarked) [compound 275], the pIC50 was 5.50.
Same read-out and setting: the figure for `CCCc1ccnc(Nc2cc3cc[nH]c(=O)c3c(NC(C)C)n2)c1` [compound 502] is 6.79; for `[2H]C([2H])([2H])n1ccc2cc(Nc3cnccn3)nc(NC(C)(C)C)c2c1=O` [compound 469] it is 7.01; for `COCCNc1nc(Nc2cc(C)ccn2)cc2cc[nH]c(=O)c12` [compound 527] it is 6.92.
On the same count and under the same terms, the figure for `[2H]C([2H])([2H])n1ccc2cc(Nc3cnccn3)nc(N[C@H]3CC[C@@H](O)CC3)c2c1=O` [compound 377] is 7.47; for `CCn1ccc2cc(Nc3cc(C)c(F)cn3)nc(N[C@H]3CC[C@@H](O)CC3)c2c1=O` [compound 393] it is 7.05; for `CN1CCC(c2ccc(Nc3nc(Nc4cnccn4)cc4ccn(C)c(=O)c34)cc2)CC1` [compound 344] it is 7.35.
For the molecule `O=c1[nH]ccc2cc(-c3cncc(NC4CC4)n3)nc(Nc3ccc(N4CCOCC4)cc3)c12` [compound 48], the pIC50 was 7.08.
Still for that read-out and setting: as for `[2H]C([2H])([2H])n1ccc2cc(Nc3cnccn3)nc(NC3CC3)c2c1=O` [compound 467], the figure is 7.31; as for `Cc1ccnc(Nc2cc3cc[nH]c(=O)c3c(NC(C)(C)CO)n2)c1` [compound 488], 7.68; as for `COc1cncc(-c2cc3cc[nH]c(=O)c3c(Nc3ccc(C4CNC4)cc3)n2)n1` [compound 145], 8.22.
The same measure, in the same setting: as for `CCc1ccnc(Nc2cc3ccn(CC)c(=O)c3c(NC(C)C)n2)c1` [compound 304], the figure is 6.42.
`COc1nc(-c2cc3cc[nH]c(=O)c3c(Nc3ccc(C4CCNCC4)c(C)c3)n2)cnc1N` [compound 168]: the negative-log IC50 (pIC50) was 8.40.
On the same count and under the same terms, as for `NC(=O)c1ccnc(Nc2cc3cc[nH]c(=O)c3c(NC3CC3)n2)c1` [compound 559], the figure is 6.53; as for `Cc1ccnc(Nc2cc3cc[nH]c(=O)c3c(NCC3CC3)n2)c1` [compound 285], 6.70; as for `COc1cncc(-c2cc3cc[nH]c(=O)c3c(Nc3ccc(N4CC5(CNC5)C4)cc3)n2)n1` [compound 5], 6.50.
Same read-out and setting: the figure for `Cc1cc(Nc2nc(Nc3cc(CO)ccn3)cc3cc[nH]c(=O)c23)ccc1C1CCN(C2CC2)CC1` [compound 260] is 7.31; for `O=c1c2c(NCC(F)(F)F)nc(Nc3cnccn3)cc2ccn1CCO` [compound 456] it is 7.67.
Still for that read-out and setting: the figure for `O=c1[nH]ccc2cc(Nc3ccccn3)nc(NCCc3cccnc3)c12` [compound 289] is 6.64.
